Test results published in patent US20110251230A1, “THERAPEUTICS FOR NEUROLOGICAL DISORDERS” (UNIVERSITY OF SHEFFIELD, priority 2008, published 2011).
Where two headings read alike, the source gives them in different places.

Key:
[1] = system: NRF2-ARE pathway in the CHO 4× ARE-TK cell line; experiment: ARE reporter assay in CHO 4×ARE-TK-GFP cell line (GFP induction, EthD1 toxicity); settings: for maximal fold induction: read-out: Average fold GFP induction at maximal response
Description: Chinese Hamster Ovary (CHO), NSC34 mouse motor neuronal cells, C6 (rat) and 1321N1 (human) astrocytic lines were routinely maintained in DMEM supplemented with 10% FBS and penicillin/streptomycin. […] These plasmids were transfected into CHO, C6 and 1321N1 cell lines using Lipofectamine 2000 (Invitrogen) and following 10-14 days of selection in 0.5 mg/ml G418 they were expanded and selected for basal eGFP expression using fluorescence activated cell sorting (BD, FACSAria) with two sequential cell sorts for each cell line. These mixed populations of stable transfectants with basal eGFP expression were used in subsequent assays and designated 4×ARE-TK-GFP for the ARE containing line and TK-GFP for the control cell line. […]
Confluent cultures of 4×ARE-TK-GFP CHO or TK-GFP CHO expressing cells in 96 or 384-well tissue-culture plates were treated with drug (0.01-100 µM in triplicate) or vehicle (0.1-1% DMSO) in FCS-free DMEM in triplicate for 24 hours. The media was removed and replaced with the same volume of PBS containing 0.3 μM EthD1. […] Non-linear regression was used to fit a sigmoidal dose-response curve on a semi-Log plot to calculate the EC50 using GraphPad Prism (GraphPad Software). The reporter assay was conducted in a similar fashion in C6 and 1321N1 astrocyte cell lines stably transfected with the 4×ARE-TK-GFP and TK-GFP constructs except that Eth D1 was added directly in the media and read prior to washing the cells once and reading the […] signal. […]
The compounds were applied in triplicate to confluent cells in 96 well plates in serum free medium for 24 hours and the induction of GFP measured in a fluorescence plate reader. […]

C6 (rat) astrocytic line = experiment: C6 oxidative stress assay (serum withdrawal, DCF); settings: for Lowest dose with toxicity: C6; for IC50: C6, 24 h pre-treatment, serum withdrawal, DCF; for Maximal % reduction in Oxidative stress: C6, DCF fluorescence
Description: (§1) A simple oxidative stress assay was used to determine whether preconditioning with NRF2-ARE inducing drugs could protect against a subsequent oxidative stress insult (serum withdrawal). The NSC34, C6 and 1321N1 cells were plated in 96 well tissue culture plates to achieve 30% confluency. […] Media was then replaced with serum free, phenol free media for 5 hrs. […] Cell survival assay was then performed on the cells as protection is measured as % reduction in DCF signal, therefore data points were excluded where a decrease in cell number was measured.
(§2) Briefly methylthiazolyldiphenyl-tetrazolium bromide (MTT) was added to the cells and a blank well to a final concentration 0.5 mg/ml and incubated at 37° C. for 1-3 hrs depending on the cell line used.

[2] = system: NSC34 mouse motor neuronal cells; experiment: NSC34 oxidative stress assay (serum withdrawal, DCF); settings: for Lowest dose with toxicity: NSC34; for Maximal % reduction in Oxidative stress: NSC34, DCF fluorescence, negative = pro-oxidant
Description: as §1, §2

[3] = system: 1321N1 (human) astrocytic line; experiment: 1321N1 oxidative stress assay (serum withdrawal, DCF); settings: for Lowest dose with toxicity: 1321N1; for Maximal % reduction in Oxidative stress: 1321N1, DCF fluorescence
Description: as §1, §2

[4] = read-out: Average EC50, CHO 4×ARE-TK-GFP, GFP induction, 24 h

SMILES	Average fold GFP induction at maximal response ([1]; CHO 4×ARE-TK-GFP, 24 h)	Lowest dose with toxicity ([1]; CHO ARE reporter assay)	EC50 [1, 4]	Lowest dose with toxicity (C6 (rat) astrocytic line)	IC50 (C6 (rat) astrocytic line)	Maximal % reduction in Oxidative stress (C6 (rat) astrocytic line)	Lowest dose with toxicity [2]	Maximal % reduction in Oxidative stress [2]	Lowest dose with toxicity [3]	Maximal % reduction in Oxidative stress [3]	Lowest dose with toxicity ([1]; Chinese hamster, 24 h)	maximal fold induction ([1]; Cricetulus griseus, 24 h)	EC50 ([1]; Cricetulus griseus, 24 h, read-out: Average EC50)	IC50 ([3]; 1321N1, 24 h pre-treatment, serum withdrawal, DCF)	EC50 ([1]; Cricetulus griseus, 24 h, read-out: Average EC50, CHO 4×ARE-TK-GFP, GFP induction, 24 h)
COC(=O)[C@H](O)[C@H]1C(C)(C)[C@H](OC(C)=O)[C@@H]2CC3=C4CC(=O)O[C@@H](c5ccoc5)[C@]4(C)CC[C@@H]3[C@@]1(C)C2=O [swietenolide 3 acetate]	2.82 fold	100 µM	3.5 µM	none	4.22 µM	50%	0.3 µM	0%	none	60%					
COc1cc(O)c(C)c(O)c1 [2,6-dihydroxy-4-methoxytoluene]				10 µM			none		none		100 µM	3.05			
O=C(CC[N+](=O)[O-])OC[C@H]1O[C@@H](O)[C@H](OC(=O)CC[N+](=O)[O-])[C@@H](OC(=O)CC[N+](=O)[O-])[C@@H]1OC(=O)CC[N+](=O)[O-] [endecaphyllin X]	2.15 fold	None	18.8 µM	none	3.15 µM	40%	10 µM	0%	none	56%					
CC1(C)C(=O)C=C[C@]2(C)[C@H]3CC[C@@]4(C)[C@H](c5ccoc5)OC(=O)[C@H]5O[C@]54[C@]3(C)[C@H](O)C[C@@H]12 [Deacetylgedunin]		30 µM		none	5.36 µM		none		10 µM			3.05	3.5 µM	2.37 µM	
C=C(C)/C=C1/C=CC(=O)C(C)=C1 [Retusoquinone]				none			none		none		100 µM	2.04			~35 µM
O=C(/C=C/c1ccc(O)cc1)c1ccc(O)cc1O [Isoliquintigenin, Isoliquiritigenin]				none	~28 µM		1 µM		none		30 µM	2.58			
C=CC(C1=CC(=O)C(OC)=CC1=O)c1ccccc1 (stereo not drawn) [4-Methoxydalbergione]	2.11 fold	100 µM	11 µM	none	2.5 µM	14%	none	−44%	none	43%					
COc1cc(O)cc(OC)c1OC [Antiarol]				10 µM			10 µM		none		100 µM	1.64			
CC(=O)Oc1ccc(O)cc1 [4 acetoxyphenol]				none			none		none		100 µM	2.78			
COc1cccc(O)c1O [3 methoxycatechol]				10 µM			0.3 µM		none		100 µM	3.28			
O=c1c2ccccc2[se]n1-c1ccccc1 [Ebselen, reference compound]				none			none		none		100 µM	2.81			
